According to patent US12606561B2, “Substituted pyrazolo[1,5-a][1,3,5]triazines as CDK inhibitors” (QURIENT CO., LTD., priority 2018, dated 2026):
pIC50: −log10 of the molar value.

What was measured:
CDK1/Cyclin B = biological target: T1, CDK1/Cyclin B (Homo sapiens, UniProt P06493); test: Enzymatic assay for CDK1 (LANCE Ultra kinase assay, FRET based); format: biochemical; conditions: ATP at Km; read-out: CDK1 enzymatic activity IC50
T1 construct: purchased Invitrogen PR4768C
Outline: (§1)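 With ATP set at its Km, compounds were tested against purified CDK/cyclin complexes phosphorylating a ULight-labeled peptide. Signal came from FRET between the peptide and a Europium-labeled anti-phospho-antibody.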

CDK2/Cyclin A = biological target: T2, CDK2/Cyclin A (Homo sapiens, UniProt P24941); test: Enzymatic assay for CDK2 (LANCE Ultra kinase assay, FRET based); format: biochemical; conditions: ATP at Km
T2 construct: purchased Invitrogen PV6290
Outline: (§2)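 TR-FRET kinase assay at ATP Km with ULight-MBP peptide (68 nM) and Eu-anti-phospho-MBP antibody; CDK2/Cyclin A at […], CDK5/p25 at […]. 8-dose 4-fold compound dilutions; 60 min kinase reaction at 23° C., EDTA stop, 60 min detection, read at 615/665 nm.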

CDK5/p25 = biological target: T3, CDK5/p25 (Homo sapiens, UniProt Q00535); test: Enzymatic assay for CDK5 (LANCE Ultra kinase assay, FRET based); format: biochemical; conditions: ATP at Km
T3 construct: purchased Invitrogen PR8543B
Outline: as §2

CDK7/Cyclin H/MNAT1 = biological target: T4, CDK7/Cyclin H/MNAT1 (Homo sapiens, UniProt P50613); test: Enzymatic assay for CDK7 (LANCE Ultra kinase assay, FRET based); format: biochemical; conditions: for pIC50: ATP at Km
T4 construct: purchased Invitrogen PR6749B
Outline: as §1

MV4-11 = test: Cellular MV4-11 viability assay (CellTiter-Glo, 72 hours); format: cell-based; conditions: Homo sapiens; MV4-11 cells
Description: Human […] cell line, MV4-11_(ATCC, Cat #CRL-9591), NSCLC (Non-small cell lung cancer) cell line H460 (ATCC, Cat #HTB-177), A2780 (ECACC, Cat #93112519) and OVCAR-3(ATCC, Cat #HTB-161) were obtained from ATCC. Cells were grown in RPMI-1640 media (Invitrogen, Cat #22400-089) supplemented with 10% FBS (Invitrogen, Cat #10099141) and 1% penicillin/streptomycin (Invitrogen, Cat #15070063) and cultured at 37° C., 5% CO2 in a humidified chamber. All cell lines were routinely tested for mycoplasma.
To effect of the CDK7 inhibitor to inhibit the growth of target cancer cells, viability assay were conducted a 72 hour time period. Briefly, the candidate cell line was plated in 96 well plate at the following density of cells respectively. 1×10^4 cells/well for MV4-11, 5×10^3 for H460 and OVCAR-3, and 1×10^3 for A2780. After 24 hours, the cells were treated with various concentrations of the compound (ranging from 0.0015 uM to 10 uM). DMSO solvent without compound served as a control and final DMSO concentration lest than 0.1%. After 72 hours of incubation at 37° C., 5% CO2 incubator, cells were analyzed for the viability using the CellTiter-Glo Luminescent Cell Viability Assay (Promega, Cat #G7570). All viability assays were performed in duplicate and Luminescence was read using an Envision (Perkin Elmer, USA). Data was analyzed using XLfit software.

A2780 = A2780 viability assay (CellTiter-Glo, 72 hours); format: cell-based; conditions: Homo sapiens; A2780 cells
Outline: (§3)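 After a 24 h attachment period, cells received a 0.0015–10 uM compound titration and were incubated 72 h at 37° C, 5% CO2. Viability came from CellTiter-Glo luminescence measured in duplicate.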

OVCAR-3 = OVCAR-3 viability assay (CellTiter-Glo, 72 hours); format: cell-based; conditions: Homo sapiens; OVCAR-3 cells
Outline: as §3

T1 sequence (P06493 whole entry): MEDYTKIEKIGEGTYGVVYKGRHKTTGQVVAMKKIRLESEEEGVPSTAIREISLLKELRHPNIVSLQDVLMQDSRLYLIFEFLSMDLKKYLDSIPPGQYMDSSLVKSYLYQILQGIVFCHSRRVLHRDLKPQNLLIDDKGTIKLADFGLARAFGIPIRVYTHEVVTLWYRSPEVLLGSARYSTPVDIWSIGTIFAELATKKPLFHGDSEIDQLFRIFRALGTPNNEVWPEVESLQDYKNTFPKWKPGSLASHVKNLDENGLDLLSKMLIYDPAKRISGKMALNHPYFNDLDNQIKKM
T1 sequence (P14635 whole entry partner): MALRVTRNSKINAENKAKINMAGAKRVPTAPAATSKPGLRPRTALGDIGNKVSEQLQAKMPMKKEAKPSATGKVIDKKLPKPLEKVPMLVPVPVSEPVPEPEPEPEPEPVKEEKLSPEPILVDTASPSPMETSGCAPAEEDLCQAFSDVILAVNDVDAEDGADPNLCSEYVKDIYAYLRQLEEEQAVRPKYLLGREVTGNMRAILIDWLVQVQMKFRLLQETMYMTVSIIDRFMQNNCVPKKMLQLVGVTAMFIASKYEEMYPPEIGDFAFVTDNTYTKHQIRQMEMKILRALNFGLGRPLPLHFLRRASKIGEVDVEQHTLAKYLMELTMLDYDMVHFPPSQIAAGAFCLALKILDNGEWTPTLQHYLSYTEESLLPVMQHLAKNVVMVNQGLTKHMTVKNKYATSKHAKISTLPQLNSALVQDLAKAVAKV
T4 sequence (P50613 whole entry): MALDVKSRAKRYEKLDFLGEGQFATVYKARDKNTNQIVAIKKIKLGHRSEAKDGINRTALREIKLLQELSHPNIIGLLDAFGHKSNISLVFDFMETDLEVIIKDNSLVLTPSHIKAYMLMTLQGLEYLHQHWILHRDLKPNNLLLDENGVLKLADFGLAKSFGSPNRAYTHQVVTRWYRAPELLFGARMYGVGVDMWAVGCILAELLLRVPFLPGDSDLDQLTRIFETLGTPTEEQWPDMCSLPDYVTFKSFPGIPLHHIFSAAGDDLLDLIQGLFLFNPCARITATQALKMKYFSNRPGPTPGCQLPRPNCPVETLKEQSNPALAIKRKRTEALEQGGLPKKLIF
T4 sequence (P51946 whole entry partner): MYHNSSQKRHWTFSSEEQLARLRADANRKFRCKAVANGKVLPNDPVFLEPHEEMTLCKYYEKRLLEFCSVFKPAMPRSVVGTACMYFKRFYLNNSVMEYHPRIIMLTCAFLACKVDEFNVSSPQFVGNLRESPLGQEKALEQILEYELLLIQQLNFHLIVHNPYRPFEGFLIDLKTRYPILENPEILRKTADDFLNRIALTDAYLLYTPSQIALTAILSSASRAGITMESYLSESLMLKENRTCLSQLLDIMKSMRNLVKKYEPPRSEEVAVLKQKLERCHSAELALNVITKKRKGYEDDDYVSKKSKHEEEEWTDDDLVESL
T4 sequence (P51948 whole entry partner): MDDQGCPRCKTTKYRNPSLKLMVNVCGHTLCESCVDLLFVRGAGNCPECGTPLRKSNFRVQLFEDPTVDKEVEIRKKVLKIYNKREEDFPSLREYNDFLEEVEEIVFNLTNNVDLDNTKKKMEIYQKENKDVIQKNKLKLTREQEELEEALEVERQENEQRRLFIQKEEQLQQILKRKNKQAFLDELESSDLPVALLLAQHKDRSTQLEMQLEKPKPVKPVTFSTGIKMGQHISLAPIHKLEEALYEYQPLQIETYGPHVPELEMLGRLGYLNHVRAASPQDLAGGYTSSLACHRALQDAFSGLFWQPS
T3 sequence (Q00535 whole entry): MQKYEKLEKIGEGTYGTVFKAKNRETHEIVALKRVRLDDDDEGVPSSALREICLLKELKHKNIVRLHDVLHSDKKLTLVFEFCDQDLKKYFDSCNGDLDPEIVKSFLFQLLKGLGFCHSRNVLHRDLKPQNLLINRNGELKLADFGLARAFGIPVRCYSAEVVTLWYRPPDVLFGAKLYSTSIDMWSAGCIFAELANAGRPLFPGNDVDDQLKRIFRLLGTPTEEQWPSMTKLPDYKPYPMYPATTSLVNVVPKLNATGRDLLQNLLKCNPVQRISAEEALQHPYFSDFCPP
T3 sequence (Q15078 99-307 partner limits assumed): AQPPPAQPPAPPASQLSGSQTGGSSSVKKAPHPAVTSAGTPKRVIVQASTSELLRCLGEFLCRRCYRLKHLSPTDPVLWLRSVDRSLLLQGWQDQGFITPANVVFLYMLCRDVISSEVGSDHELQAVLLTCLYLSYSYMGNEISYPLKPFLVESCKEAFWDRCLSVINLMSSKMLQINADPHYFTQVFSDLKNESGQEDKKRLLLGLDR

| Compound | pIC50 (CDK1/Cyclin B) | pIC50 (CDK2/Cyclin A) | pIC50 (CDK5/p25) | pIC50 (CDK7/Cyclin H/MNAT1) | CDK1/CDK7: Selectivity of CDK7 inhibition over CDK1 inhibition (CDK7/Cyclin H/MNAT1) | CDK2/CDK7: Selectivity of CDK7 inhibition over CDK2 inhibition (CDK7/Cyclin H/MNAT1) | CDK5/CDK7: Selectivity of CDK7 inhibition over CDK5 inhibition (CDK7/Cyclin H/MNAT1) | pIC50 (MV4-11) | pIC50 (A2780) | pIC50 (OVCAR-3) |
| --- | --- | --- | --- | --- | --- | --- | --- | --- | --- | --- |
| CC(C)c1cnn2c(NCc3ccccc3-c3nccc4cc(NC(=O)/C=C/CN5CCCC5)ccc34)nc(N3CCC(N)CC3)nc12 [Compound 57] | < 6.00 | < 6.00 | < 6.00 | > 7.00 | A (A indicates [fold] > 500) | A (A indicates [fold] > 500) | A (A indicates [fold] > 500) | > 6.00 | > 6.00 | > 6.00 |
| CC(C)c1cnn2c(NCc3ccccc3-c3nccc4cc(NC(=O)/C=C/CN(C)C)ccc34)nc(NCCCO)nc12 [Compound 28] | < 6.00 | < 6.00 | < 6.00 | 6.00 to 7.00 | B (B indicates 50 < [fold] ≤ 500) | B (B indicates 50 < [fold] ≤ 500) | B (B indicates 50 < [fold] ≤ 500) | > 6.00 | > 6.00 | > 6.00 |
| CNC1CCN(c2nc(NCc3ccccc3-c3nccc4cc(NC(=O)/C=C/CN(C)C)ccc34)n3ncc(C(C)C)c3n2)CC1 [Compound 34] | < 6.00 | < 6.00 | < 6.00 | > 7.00 | A (A indicates [fold] > 500) | A (A indicates [fold] > 500) | A (A indicates [fold] > 500) | > 6.00 | > 6.00 | > 6.00 |
| CC(C)c1cnn2c(NCc3ccccc3-c3nccc4cc(NC(=O)/C=C/CN5CCOCC5)ccc34)nc(N3CCC(N)CC3)nc12 [Compound 53] | < 6.00 | < 6.00 | < 6.00 | > 7.00 | A (A indicates [fold] > 500) | A (A indicates [fold] > 500) | A (A indicates [fold] > 500) | > 6.00 | > 6.00 | > 6.00 |
| CC(C)c1cnn2c(NCc3ccccc3-c3nccc4cc(NC(=O)/C=C/CN(C)C)ccc34)nc(NC3CCNCC3)nc12 [Compound 63] | < 6.00 | < 6.00 | < 6.00 | > 7.00 | A (A indicates [fold] > 500) | A (A indicates [fold] > 500) | A (A indicates [fold] > 500) | > 6.00 | 5.00 to 6.00 | 5.00 to 6.00 |
| CC(C)c1cnn2c(NCc3ccccc3-c3nccc4cc(NC(=O)/C=C/CN5CCCCC5)ccc34)nc(N3CCC(N)CC3)nc12 [Compound 52] | < 6.00 | < 6.00 | < 6.00 | > 7.00 | A (A indicates [fold] > 500) | A (A indicates [fold] > 500) | A (A indicates [fold] > 500) | > 6.00 | > 6.00 | > 6.00 |
| CC(C)c1cnn2c(NCc3ccccc3-c3nccc4cc(NC(=O)/C=C/CN(C)C)ccc34)nc(N3CCC(O)CC3)nc12 [Compound 31] | < 6.00 | < 6.00 | < 6.00 | > 7.00 | A (A indicates [fold] > 500) | A (A indicates [fold] > 500) | A (A indicates [fold] > 500) | > 6.00 | > 6.00 | > 6.00 |

Further lines, results first:

| pIC50 (CDK1/Cyclin B) | pIC50 (CDK2/Cyclin A) | pIC50 (CDK5/p25) | pIC50 (CDK7/Cyclin H/MNAT1) | CDK1/CDK7: Selectivity of CDK7 inhibition over CDK1 inhibition (CDK7/Cyclin H/MNAT1) | CDK2/CDK7: Selectivity of CDK7 inhibition over CDK2 inhibition (CDK7/Cyclin H/MNAT1) | CDK5/CDK7: Selectivity of CDK7 inhibition over CDK5 inhibition (CDK7/Cyclin H/MNAT1) | pIC50 (MV4-11) | pIC50 (A2780) | pIC50 (OVCAR-3) | Compound |
| --- | --- | --- | --- | --- | --- | --- | --- | --- | --- | --- |
| < 6.00 | < 6.00 | < 6.00 | > 7.00 | A (A indicates [fold] > 500) | A (A indicates [fold] > 500) | B (B indicates 50 < [fold] ≤ 500) | > 6.00 | 5.00 to 6.00 | 5.00 to 6.00 | C/C=C/C(=O)Nc1cccc2cc(-c3cccc(C)c3CNc3nc(NC[C@H]4CCNC[C@@H]4O)nc4c(C(C)C)cnn34)[nH]c12 [Compound 73] |
| < 6.00 | < 6.00 | < 6.00 | > 7.00 | A (A indicates [fold] > 500) | A (A indicates [fold] > 500) | A (A indicates [fold] > 500) | > 6.00 | > 6.00 | > 6.00 | Cc1cccc(-c2ccc3cccc(NC(=O)/C=C/CN(C)C)c3n2)c1CNc1nc(N2CCC(N)CC2)nc2c(C(C)C)cnn12 [Compound 56] |
| < 6.00 | < 6.00 | < 6.00 | > 7.00 | A (A indicates [fold] > 500) | A (A indicates [fold] > 500) | A (A indicates [fold] > 500) | > 6.00 | > 6.00 | > 6.00 | C=C(F)C(=O)Nc1ccc2c(-c3ccccc3CNc3nc(NC[C@H]4CCNC[C@@H]4O)nc4c(C(C)C)cnn34)nccc2c1 [Compound 64] |
| < 6.00 | < 6.00 | < 6.00 | > 7.00 | A (A indicates [fold] > 500) | A (A indicates [fold] > 500) | A (A indicates [fold] > 500) | > 6.00 | > 6.00 | > 6.00 | C=CC(=O)Nc1cccc2ccc(-c3cccc(C)c3CNc3nc(NC[C@H]4CCNC[C@@H]4O)nc4c(C(C)C)cnn34)nc12 [Compound 67] |
